Test results from US12116359B2, “EBNA1 inhibitor crystalline forms, and methods of preparing and using same” (THE WISTAR INSTITUTE, priority 2018, dated 2024).
“Also recorded” adds a separate entry of the source. Read-outs that look alike come from different tables or passages of the source.

Assays:
Type in all cases: physicochemical
[1] = Further stability experiments on crystalline forms (vacuum drying, grinding, storage)
Procedure: Further experiments were carried out, involving heating, vacuum drying and/or grinding the materials in order to assess the stability of the solvated materials and the potential crystallization of an anhydrous form by desolvation.

[2] = Preliminary solubility assessment in solvents; settings: RT
Procedure: Amorphous (I) free acid (post washing, ca. 20 mg) was dissolved or suspended in a range of solvent systems (using 10 or 20 volumes) at RT. Solutions were placed in a fridge at 4° C. overnight. If no solid was obtained, the solution was then allowed to evaporate at RT. Suspensions were matured between RT-50° C. heat-cool cycles (8 h per cycle) for up to 7 days. Solids were analyzed by XRPD.

[3] = Storage stability of solid forms at elevated temperature/humidity (XRPD, HPLC purity)
Procedure: Purity analysis was performed on an Agilent HP1100 series system equipped with a diode array detector and using ChemStation software vB.04.03 using the method detailed in Table 1.
Amorphous (I) free acid was stored at 40° C./75% RH (open vial), 25° C./97% RH (open vial) and 60° C. (closed vial, ambient humidity) for 8 weeks.
Characterization by XRPD, ^1H NMR, TGA, DSC and storage at 40° C./75% RH for one week was carried out. Details are found in Table 10.

[4] = Gravimetric vapour sorption (GVS); settings: for Hygroscopicity: GVS, 0-90% RH
Procedure: Sorption isotherms were obtained using a SMS DVS Intrinsic moisture sorption analyzer, controlled by DVS Intrinsic Control software. The sample temperature was maintained at 25° C. by instrument controls. The humidity was controlled by mixing streams of dry and wet nitrogen, with a total flow rate of 200 ml/min. The relative humidity was measured by a calibrated Rotronic probe (dynamic range of 1.0-100% RH), located near the sample. The weight change (mass relaxation) of the sample as a function of % RH was constantly monitored by the microbalance (accuracy ±0.005 mg). Typically 5-20 mg of sample was placed in a tared mesh stainless steel basket under ambient conditions. The sample was loaded and unloaded at 40% RH and 25° C. (typical room conditions). A moisture sorption isotherm was performed as outlined below (2 scans giving 1 complete cycle). The standard isotherm was performed at 25° C. at 10% RH intervals over a 0-90% RH range. Data analysis was carried out using Microsoft Excel. The sample was recovered after completion of the isotherm and re-analyzed by XRPD.

[5] = Storage stability of solid forms at elevated temperature/humidity (XRPD, HPLC purity); settings: 4 weeks

Q: Which “Storage at 40° C./75% RH for 3.5 days” value ([1]; 40° C./75% RH, 3.5 days, XRPD and 1H NMR) does the source give for `O=C(O)c1cccc(C#Cc2ccc(COC3CCOCC3)cc2)c1-c1ccc2cc[nH]c2c1` [Pattern 3, 2-(1H-Indol-6-yl)-3-[4-(tetrahydro-pyran-4-yloxymethyl)-phenylethynyl]-benzoic acid] here?
A: Unchanged by

Q: For `O=C(O)c1cccc(C#Cc2ccc(COC3CCOCC3)cc2)c1-c1ccc2cc[nH]c2c1` [Amorphous (I) free acid, 2-(1H-Indol-6-yl)-3-[4-(tetrahydro-pyran-4-yloxymethyl)-phenylethynyl]-benzoic acid], which solubility ([2]; 1,4-dioxane, organic solvent or mixture, thermodynamic from solid, 1,4-Dioxane, 10 vol, read-out: Solubility assessment 10 vol) is on record?
A: > 100 mg/mL

Q: And the solubility ([2]; 2-propanol, organic solvent or mixture, thermodynamic from solid, 2-Propanol, 10 vol, read-out: Solubility assessment 10 vol)?
A: > 100 mg/mL

Q: What about the solubility ([2]; acetone, organic solvent or mixture, thermodynamic from solid, Acetone, 10 vol, read-out: Solubility assessment 10 vol) of the same compound?
A: > 100 mg/mL

Q: What about the solubility ([2]; acetone/5% water, organic solvent or mixture, thermodynamic from solid, Acetone/5% water, 10 vol, read-out: Solubility assessment 10 vol) of the same compound?
A: > 100 mg/mL

Q: And the solubility ([2]; acetonitrile, organic solvent or mixture, thermodynamic from solid, Acetonitrile, 10 vol, read-out: Solubility assessment 10 vol)?
A: > 100 mg/mL

Q: And the solubility ([2]; anisole, organic solvent or mixture, thermodynamic from solid, Anisole, 10 vol, read-out: Solubility assessment 10 vol)?
A: > 100 mg/mL

Q: What about the solubility ([2]; dichloromethane, organic solvent or mixture, thermodynamic from solid, Dichloromethane, 10 vol, read-out: Solubility assessment 10 vol) of the same compound?
A: > 100 mg/mL

Q: What about the solubility ([2]; ethanol, organic solvent or mixture, thermodynamic from solid, Ethanol, 10 vol, read-out: Solubility assessment 10 vol) of the same compound?
A: > 100 mg/mL

Q: What about the solubility ([2]; ethanol/5% water, organic solvent or mixture, thermodynamic from solid, Ethanol/5% water, 10 vol, read-out: Solubility assessment 10 vol) of the same compound?
A: > 100 mg/mL

Q: What about the solubility ([2]; ethyl acetate, organic solvent or mixture, thermodynamic from solid, Ethyl Acetate, 10 vol, read-out: Solubility assessment 10 vol) of the same compound?
A: > 100 mg/mL

Q: And the solubility ([2]; heptane, organic solvent or mixture, thermodynamic from solid, Heptane, 10 vol, read-out: Solubility assessment 10 vol)?
A: < 100 mg/mL

Q: And the solubility ([2]; heptane, organic solvent or mixture, thermodynamic from solid, Heptane, 20 vol, read-out: Solubility assessment 20 vol)?
A: < 50 mg/mL

Q: And the solubility ([2]; methanol, organic solvent or mixture, thermodynamic from solid, Methanol, 10 vol, read-out: Solubility assessment 10 vol)?
A: > 100 mg/mL

Q: And the solubility ([2]; methylethyl ketone, organic solvent or mixture, thermodynamic from solid, Methylethyl Ketone, 10 vol, read-out: Solubility assessment 10 vol)?
A: > 100 mg/mL

Q: And the solubility ([2]; methylisobutyl ketone (printed Methylisoburyl Ketone), organic solvent or mixture, thermodynamic from solid, Methylisoburyl Ketone, 10 vol, read-out: Solubility assessment 10 vol)?
A: > 100 mg/mL

Q: What about the solubility ([2]; nitromethane, organic solvent or mixture, thermodynamic from solid, Nitromethane, 10 vol, read-out: Solubility assessment 10 vol) of the same compound?
A: < 100 mg/mL

Q: What about the solubility ([2]; nitromethane, organic solvent or mixture, thermodynamic from solid, Nitromethane, 20 vol, read-out: Solubility assessment 20 vol) of the same compound?
A: < 50 mg/mL

Q: And the solubility ([2]; tetrahydrofuran, organic solvent or mixture, thermodynamic from solid, Tetrahydrofuran, 10 vol, read-out: Solubility assessment 10 vol)?
A: > 100 mg/mL

Q: And the solubility ([2]; toluene, organic solvent or mixture, thermodynamic from solid, Toluene, 10 vol, read-out: Solubility assessment 10 vol)?
A: < 100 mg/mL

Q: And the solubility ([2]; toluene, organic solvent or mixture, thermodynamic from solid, Toluene, 20 vol, read-out: Solubility assessment 20 vol)?
A: < 50 mg/mL

Q: And the solubility ([2]; water, thermodynamic from solid, Water, 10 vol, read-out: Solubility assessment 10 vol)?
A: < 100 mg/mL

Q: What about the solubility ([2]; water, thermodynamic from solid, Water, 20 vol, read-out: Solubility assessment 20 vol) of the same compound?
A: < 50 mg/mL

Q: What about the “Decrease in chemical purity after storage” value (shortened to “Decrease in chemical purity”) ([3]; 25° C./97% RH, 8 weeks) of the same compound?
A: 4.0 % (AUC)

Q: What about the “XRPD after storage at 25° C./97% RH for 8 weeks” value ([3]; 25° C./97% RH, open vial, 8 weeks) of the same compound?
A: completely amorphous trace by XRPD; also recorded: amorphous traces

Q: And the “Purity by HPLC after storage at 25° C./97% RH for 8 weeks” value ([3]; 25° C./97% RH, open vial, 8 weeks, initial purity 95.5% (AUC))?
A: 91.5 % (AUC)

Q: And the “Purity by HPLC after storage at 25° C./97% RH for 8 weeks” value ([3]; 25° C./97% RH, open vial, 8 weeks, initial purity 95.5% (AUC), listed as (I) free acid amorphous material)?
A: present. 91.5% (AUC) purity.

Q: What about the “Decrease in chemical purity” value ([3]; 40° C./75% RH, 8 weeks) of the same compound?
A: 2.0 % (AUC)

Q: What about the “XRPD after storage at 40° C./75% RH for 8 weeks” value ([3]; 40° C./75% RH, open vial, 8 weeks) of the same compound?
A: unchanged by XRPD; also recorded: amorphous traces

Q: And the “Purity by HPLC after storage at 40° C./75% RH for 8 weeks” value ([3]; 40° C./75% RH, open vial, 8 weeks, initial purity 95.5% (AUC))?
A: 93.5 % (AUC)

Q: And the “XRPD after storage at 40° C./75% RH for 8 weeks” value ([3]; 40° C./75% RH, open vial, 8 weeks, listed as (I) free acid amorphous material)?
A: Unchanged by XRPD

Q: What about the “Decrease in chemical purity” value ([3]; 60° C., 8 weeks) of the same compound?
A: 1.1 % (AUC)

Q: And the “XRPD after storage at 60° C. for 8 weeks” value ([3]; 60° C., closed vial, ambient humidity, 8 weeks)?
A: unchanged by XRPD; also recorded: amorphous traces

Q: And the “Purity by HPLC after storage at 60° C. for 8 weeks” value ([3]; 60° C., closed vial, ambient humidity, 8 weeks, initial purity 95.5% (AUC))?
A: 94.4 % (AUC)

Q: What about the “XRPD after storage at 60° C. for 8 weeks” value ([3]; 60° C., closed vial, ambient humidity, 8 weeks, listed as (I) free acid amorphous material) of the same compound?
A: Unchanged by XRPD

Q: What about the Hygroscopicity [4] of the same compound?
A: hygroscopic

Q: And the Hygroscopicity ([4]; listed as main batch)?
A: hygroscopic

Q: What about the “XRPD after GVS” value ([4]; after 0-90% RH isotherm, listed as (I) free acid amorphous material) of the same compound?
A: 0-90% RH with hysteresis. Unchanged by XRPD.

Q: And the GVS moisture uptake ([4]; between 0-90% RH, 25° C.)?
A: ca. 5.50%

Q: And the “GVS reversible moisture uptake” value ([4]; between 0-90% RH, 25° C.)?
A: 5.5% w/w reversible moisture uptake between

Q: For `O=C(O)c1cccc(C#Cc2ccc(COC3CCOCC3)cc2)c1-c1ccc2cc[nH]c2c1` [Pattern 2, 2-(1H-Indol-6-yl)-3-[4-(tetrahydro-pyran-4-yloxymethyl)-phenylethynyl]-benzoic acid], which “Grinding and vacuum drying at 55° C.: solvent content” value ([1]; 1H NMR, 0.5 eq. toluene as prepared) is on record?
A: 0.3 eq. toluene

Q: And the “Grinding and vacuum drying at 55° C.: crystallinity” value ([1]; XRPD)?
A: significant loss of crystallinity; also recorded: Lower crystallinity

Q: And the “Vacuum drying 40° C. or 55° C.” value ([1]; solid form and solvent content by XRPD or 1H NMR)?
A: Unchanged by XRPD

Q: Which “Storage at 40° C./75% RH for 7 days” value ([3]; 40° C./75% RH, 7 days, solid form by XRPD) does the source give for `O=C(O)c1cccc(C#Cc2ccc(COC3CCOCC3)cc2)c1-c1ccc2cc[nH]c2c1` [Pattern 4, 2-(1H-Indol-6-yl)-3-[4-(tetrahydro-pyran-4-yloxymethyl)-phenylethynyl]-benzoic acid] here?
A: Unchanged

Q: What does the source list for `O=C(O)c1cccc(C#Cc2ccc(COC3CCOCC3)cc2)c1-c1ccc2cc[nH]c2c1` [Pattern 1, 2-(1H-Indol-6-yl)-3-[4-(tetrahydro-pyran-4-yloxymethyl)-phenylethynyl]-benzoic acid]?
A: XRPD after storage at 25° C./97% RH for 4 weeks ([5]; listed as Crystalline (I)): remained unchanged by XRPD; XRPD after storage at 25° C./97% RH for 4 weeks ([5]; listed as crystalline batch): remained unchanged by XRPD; XRPD after storage at 40° C./75% RH for 4 weeks ([5]; listed as Crystalline (I)): remained unchanged by XRPD; XRPD after storage at 40° C./75% RH for 4 weeks ([5]; listed as crystalline batch): remained unchanged by XRPD; XRPD after storage at 25° C./97% RH for 4 weeks ([3]; 25° C./97% RH, 4 weeks): Unchanged by XRPD.; XRPD after storage at 40° C./75% RH for 4 weeks ([3]; 40° C./75% RH, 4 weeks): Unchanged by XRPD.
